For assay [1], the system named is tyrosinase. Nature of the assay: Tyrosinase inhibition assay. The assay is classed as biochemical. The protocol:
A tyrosinase inhibition assay was performed to determine the tyrosinase inhibition potential of an extract derived from sugar cane of the present disclosure. […]
To measure tyrosinase inhibition potential of an extract derived from sugar cane of the present disclosure, tyrosinase was added to a mixture of a test sample solution containing an extract derived from sugar cane, L-DOPA, and phosphate buffer (pH 6.8), which was then incubated at 37° C. for 5 hours. Tyrosinase activity was determined through the amount of dopachrome production in the mixture, which was measured by optical density at 450 nm. Dopachrome is a cyclization product of L-DOPA, an intermediate in the biosynthesis of melanin.

Assay [2] concerns MMP-1. Nature of the assay: MMP-1 inhibition assay in UV irradiated human skin cells (zymography). The assay is classed as cell-based. The protocol: The UV protection function of an extract derived from sugar cane of the present disclosure on skin using human skin cells was investigated. MMP-1, one of the key matrix metalloproteinases (MMPs) that is viewed as an indicator for tissue integrity breakdown and wrinkle formation, was used as a biomarker for skin damage. MMP-1 inhibitors have been related to skin aging prevention and therapy. An MMP-1 inhibition assay was performed to determine the MMP-1 inhibition potential of an extract derived from sugar cane of the present disclosure. […] In order to determine the UV protection ability of a test sample of an extract derived from sugar cane of the present disclosure, human skin cells were treated with (and without) the test sample followed by UV irradiation. The treated cells were then disrupted by subjection to several freeze-thaw cycles, and the proteins were obtained by centrifugation. Using the collected lysate, zymography was used to determine the enzymatic activity of secreted MMP-1. In the zymography, the proteins were separated by electrophoresis under denaturing (sodium dodecyl sulfate, SDS), nonreducing conditions. The separation occurred in a polyacrylamide gel containing a collagen substrate that was co-polymerized with the acrylamide. […] After electrophoresis, the gel was washed and subsequently incubated in an appropriate activation buffer. During this incubation, the concentrated, renatured MMPs in the gel digested the collagen substrate. After incubation, the gel was stained with Coomassie® Blue, and the MMPs were detected as clear bands against a blue background of undegraded substrate. The clear bands in the gel was quantified by densitometry. Avobenzone, a known MMP-1 inhibitor, was used as an assay control.

For the compound `O=c1cc(CO)occ1O` [Kojic Acid, Kojic acid], in assay [1], the “Concentration inducing the maximum inhibition” value was 1000 µM. Also, the “Inhibition (%) Result” value in assay [1] (Conc. 3.91 uM) was −11.66%; in assay [1] (Conc. 7.81 uM), −9.33%; in assay [1] (Conc. 15.63 uM), −4.66%; in assay [1] (Conc. 31.25 uM) it was 1.23%; in assay [1] (Conc. 62.50 uM), 12.35%; in assay [1] (Conc. 125.00 uM) it was 30.45%. Besides, the figures for the “Inhibition (%) Result” value in assay [1] (Conc. 250.00 uM), in assay [1] (Conc. 500.00 uM) and in assay [1] (Conc. 1000.00 uM) were 52.40%, 75.45% and 90.12%, respectively. Besides, in assay [1] (at 1000 μM), the Maximum inhibition achieved amounted to 90.12%.

With `COc1ccc(C(=O)CC(=O)c2ccc(C(C)(C)C)cc2)cc1` [avobenzone, Avobenzone], in assay [2], the “Concentration inducing the maximum inhibition” value is 10%. For the same compound, the “MMP-1 inhibition (%) Average” value was found to be 5.0% in assay [2] (Conc 0.31 %); 44.1% in assay [2] (Conc 0.63 %); 48.5% in assay [2] (Conc 1.25 %); 79.8% in assay [2] (Conc 2.50 %); 90.7% in assay [2] (Conc 5.00 %); 97.5% in assay [2] (Conc 10.00 %). In addition, the “MMP-1 inhibition (%) Replicate 2” value in assay [2] (Conc 0.31 %) worked out at 5.0%; in assay [2] (Conc 0.63 %), 65.72%; in assay [2] (Conc 1.25 %) it was 39.99%; in assay [2] (Conc 2.50 %), 82.22%; in assay [2] (Conc 5.00 %), 96.03%; in assay [2] (Conc 10.00 %), 99.52%. Besides, the “MMP-1 inhibition (%) Replicate 1” value is 22.51% in assay [2] (Conc 0.63 %); 56.96% in assay [2] (Conc 1.25 %); 77.44% in assay [2] (Conc 2.50 %); 85.34% in assay [2] (Conc 5.00 %); 95.44% in assay [2] (Conc 10.00 %). Also, the Maximum inhibition achieved in assay [2] (at 10%) was determined as 97.50%. The EC50 in assay [2] (effective concentration at 50% of maximal inhibition) amounted to 1.22%.

The record behind these values is patent US12370232B2, “Use of polyphenol containing sugar cane extracts for preventing, improving or treating a skin condition” (priority 2017, dated 2025).
